Assay results taken from patent US20230250096A1, “SUBSTITUTED PHENYL-1H-PYRROLO[2,3-c] PYRIDINE DERIVATIVES” (Janssen Pharmaceutica NV, priority 2021, published 2023).
Read-outs that look alike come from different tables or passages of the source.

What was measured:
Type in all cases: cell-based, human
KO-52 cells = experiment: Proliferation assay (spheroid confluence, 8 days), KO-52 control cell line; conditions: read-out: spheroid assay_KO-52 IC50
Method: The anti-proliferative effect of menin/MLL protein/protein interaction inhibitor test compounds was assessed in human leukemia cell lines. The cell line MOLM14 harbors a MLL translocation and expresses the MLL fusion protein MLL-AF9, respectively, as well as the wildtype protein from the second allele. OCI-AML3 cells that carry the NPM1c gene mutation were also tested. […] KO-52 was used as a control cell line containing two MLL (KMT2A) wildtype alleles in order to exclude compounds that display general cytotoxic effects.
MOLM14 cells were cultured in RPMI-1640 (Sigma Aldrich) supplemented with 10% heat-inactivated fetal bovine serum (HyClone), 2 mM L-glutamine (Sigma Aldrich) and 50 μg/ml gentamycin (Gibco). KO-52 and OCI-AML3 cell lines were propagated in alpha-MEM (Sigma Aldrich) supplemented with 20% heat-inactivated fetal bovine serum (HyClone), 2 mM L-glutamine (Sigma Aldrich) and 50 μg/ml gentamycin (Gibco).
In order to assess the anti-proliferative effects, 200 MOLM14 cells, 200 OCI-AML3 cells or 300 KO-52 cells were seeded in 200 μl media per well in 96-well round bottom, ultra-low attachment plates (Costar, catalogue number 7007). Cell seeding numbers were chosen based on growth curves to ensure linear growth throughout the experiment. Test compounds were added at different concentrations and the DMSO content was normalized to 0.3%. Cells were incubated for 8 days at 37° C. and 5% CO2. Spheroid like growth was measured in real-time by live-cell imaging (IncuCyteZOOM, Essenbio, 4×objective) acquiring images at day 8. Confluence (%) as a measure of spheroid size was determined using an integrated analysis tool.
In order to determine the effect of the test compounds over time, the confluence in each well as a measure of spheroid size, was calculated. Confluence of the highest dose of a reference compound was used as baseline for the LC (Low control) and the confluence of DMSO treated cells was used as 0% cytotoxicity (High Control, HC).
Absolute IC50 values were calculated as percent change in confluence as follows:
LC=Low Control: cells treated with e.g. 1 μM of the cytotoxic agent staurosporin, or e.g. cells treated with a high concentration of an alternative reference compound
HC=High Control: Mean confluence (%) (DMSO treated cells)
% Effect=100−(100*(Sample−LC)/(HC−LC))
GraphPad Prism (version 7.00) was used to calculate the IC50. Dose-response equation was used for the plot of % Effect vs Log10 compound concentration with a variable slope and fixing the maximum to 100% and the minimum to 0%.

MOLM14 cells = experiment: Proliferation assay (spheroid confluence, 8 days), MOLM14; conditions: read-out: spheroid assay_MOLM14 IC50
Method in brief: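 Absolute IC50 derived from spheroid confluence imaged on day 8, scaled between DMSO (0%) and a cytotoxic low control such as 1 μM staurosporin, fitted with variable slope, bounds fixed at 0 and 100%. Seeding 200 cells/well (300 for KO-52), ultra-low attachment plates, 0.3% DMSO, 37° C.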

MEIS1 mRNA expression = MEIS1 mRNA expression assay (Quantigene Singleplex) in MOLM14 cells; conditions: 48 hours incubation
Method in brief: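 Read-out: MEIS1 transcript counts, background-subtracted and divided by RPL28, expressed as fold change over DMSO-treated cells, then dose-response modelled for IC50. MOLM14 cells (3,750/well) received graded compound for 48 h before lysis and QuantiGene hybridization at 55 °C.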

Row | SMILES | IC50 (KO-52 cells; Homo sapiens) [nM] | IC50 (MOLM14 cells; Homo sapiens, MOLM-14, MOLM14) [nM] | IC50 (MEIS1 mRNA expression; Homo sapiens, MOLM-14, 48 h) [nM] | IC50 (MEIS1 mRNA expression) [nM] | IC50 (MOLM14 cells; MOLM14) [nM] | IC50 (KO-52 cells) [nM]
1 | Cc1cncc2c1c(C[C@@H]1CCN(CC3CCC(O)CC3)C1)cn2-c1ccc(F)cc1C(=O)N(C)C(C)C (some centres unmarked) [Compound 205] | 2500 | 19 | 19 |  |  | 
2 | CC(=O)N1CC2CC(C1)C2N1CC[C@@H](Cc2cn(-c3ccc(F)cc3C(=O)N(C)C(C)C)c3cncc(C)c23)C1 (some centres unmarked) [Compound 209] | 12800 | 458 | > 1000 |  |  | 
3 | Cc1cncc2c1c(C[C@@H]1CCN(C[C@H]3CCNC(=O)CC3)C1)cn2-c1ccc(F)cc1C(=O)N1[C@H](C)CC[C@H]1C (single isomer, unassigned) [Compound 352a] | > 15000 | 7 | 13 |  |  | 
4 | CC(=O)N1CCC(N2CC[C@H](Cc3cn(-c4ccc(F)cc4C(=O)N(C)C(C)C)c4cncc(C)c34)C2)C(C)C1 (single isomer, unassigned) [Compound 137a] | 1100 | 15 |  | 14 |  | 
5 | COCCN(C)CCC[C@@H](C(C)C)N1CC[C@H](Cc2cn(-c3ccc(F)cc3C(=O)N(C)C(C)C)c3cncc(Cl)c23)C1 (single isomer, unassigned) [Compound 4b] | 500 | 3 | 6 |  |  | 
6 | Cc1cncc2c1c(CC1CN(CC3CCOCC3)C1)cn2-c1ccc(F)cc1C(=O)N(CCO)C(C)C [Compound 281] | 4200 | 10 | 13 |  |  | 
7 | Cc1cncc2c1c(CC1CN(C[C@@H]3CCOC3)C1)cn2-c1ccc(F)cc1C(=O)N(C)C(C)C (single isomer, unassigned) [Compound 191b] | 7000 | 33 | 41 |  |  | 
8 | Cc1cncc2c1c(C[C@@H]1CCN([C@@H](CO)C3CCCOC3)C1)cn2-c1ccc(F)cc1C(=O)N(C)C(C)C (single isomer, unassigned) [Compound 198a] |  | 10 | 13 |  |  | 
9 | COCCN(C)CCC[C@H](C(C)C)N1CC[C@H](Cc2cn(-c3ccc(F)cc3C(=O)N(C)C(C)C)c3cncc(Cl)c23)C1 (single isomer, unassigned) [Compound 4a] | 7800 | 132 | 247 |  |  | 
10 | CC(=O)N1CCC(CN2CC[C@@H](Cc3cn(-c4ccc(F)cc4C(=O)N4CCC5CC54)c4cncc(C)c34)C2)CC1 (single isomer, unassigned) [Compound 311a] | 7700 | 18 | 14 |  |  | 
11 | CC(=O)NC1CCC(N2CC[C@@H](Cc3cn(-c4ccc(F)cc4C(=O)N(C)C(C)C)c4cncc(C)c34)C2)CC1 (some centres unmarked) [Compound 200] | > 15000 |  |  | ~864 | 679 | 
12 | COC[C@H](C1CCCCO1)N1CC[C@@H](Cc2cn(-c3ccc(F)cc3C(=O)N(C)C(C)C)c3cncc(C)c23)C1 (single isomer, unassigned) [Compound 165b] | 1900 | 4 | 38 |  |  | 
13 | Cc1cncc2c1c(C[C@@H]1CCN(C[C@H]3CC[C@@H](C(=O)N4CCC4)CC3)C1)cn2-c1ccc(F)cc1C(=O)N(C)C(C)C [Compound 178] | 2900 | 12 | 14 |  |  | 
14 | CNC(=O)[C@H]1CC[C@H](CN2CC([C@H](C)c3cn(-c4ccc(F)cc4C(=O)N(C)C(C)C)c4cncc(C)c34)C2)CC1 (single isomer, unassigned) [Compound 164b] | 10400 | 10 | 17 |  |  | 
15 | COCCN(C)CCCC(C(C)C)N1CCC(Cc2cn(-c3ccc(F)cc3C(=O)N(C)C(C)C)c3cncc(F)c23)C1 (centres unmarked) [Compound 6] | 1500 | 34 | 49 |  |  | 
16 | Cc1cncc2c1c(CC1CCN(CC3CCC(=O)N(C)CC3)C1)cn2-c1ccc(F)cc1C(=O)N(C)C(C)C (single isomer, unassigned) [Compound 184a] | > 15000 |  |  | 23 | 13 | 
17 | CNC(=O)[C@H]1CC[C@H](CN2CC(Cc3cn(-c4ccc(F)cc4C(=O)N(C)C(C)C)c4cncc(C)c34)C2)CC1 [Compound 74] | 5200 | 4 | 12 |  |  | 
18 | CN=[S@](=O)(c1cc(F)ccc1-n1cc(C[C@@H]2CCN(CC3CCN(C(C)=O)CC3)C2)c2c(C)cncc21)C(C)C (single isomer, unassigned) [Compound 128a] | 7700 | 676 | 258 |  |  | 
19 | CN=S(=O)(c1cc(F)ccc1-n1cc(CC2CCN(CC3CCOCC3)C2)c2c(C)cncc21)C(C)C (single isomer, unassigned) [Compound 77b] |  |  |  | 132 | 81 | 1900
20 | CC(=O)N1CCC(CN2CC[C@@H](Cc3cn(-c4ccc(F)cc4C(=O)N4CC5CC4CO5)c4cncc(C)c34)C2)CC1 (some centres unmarked) [Compound 312] | > 15000 | 33 | 55 |  |  | 
21 | CON(C)C(=O)N1CCC(CN2CCC(Cc3cn(-c4ccc(F)cc4C(=O)N(C)C(C)C)c4cncc(C)c34)CC2)CC1 [Compound 203] | 2900 | 12 | 43 |  |  | 
22 | Cc1cncc2c1c(C[C@@H]1CCN(C[C@H]3CCOC3)C1)cn2-c1ccc(F)cc1C(=O)N(C)C(C)C (single isomer, unassigned) [Compound 190a] | 10000 | 40 | 113 |  |  | 
23 | Cc1cncc2c1c(C[C@@H]1CCN(C[C@@H]3CCNC(=O)CC3)C1)cn2-c1ccc(F)cc1C(=O)N1[C@H](C)CC[C@H]1C (single isomer, unassigned) [Compound 352b] | > 15000 | 140 | 266 |  |  | 
24 | Cc1cncc2c1c(C[C@@H]1CCN(CC3CCNC(=O)CC3)C1)cn2-c1ccc(F)cc1C(=O)N1CCC[C@H]1C (single isomer, unassigned) [Compound 353a] | > 15000 | 6 |  | 12 |  | 
25 | CC(=O)N1CCN(CCCC(C(C)C)N2CC[C@H](Cc3cn(-c4ccc(F)cc4C(=O)N(C)C(C)C)c4cncc(C)c34)C2)CC1 (mixture of isomers) [Compound 9] | 5600 | 13 | 23 |  |  | 
26 | CC(=O)N1CCC(CN2CC[C@@H](Cc3cn(-c4ccc(F)cc4C(=O)N(CC(C)O)C(C)C)c4cncc(C)c34)C2)CC1 (some centres unmarked) [Compound 320] | 6900 | 19 | 23 |  |  | 
27 | Cc1cncc2c1c(C[C@@H]1CCN(CC3CCN(C(=O)C(C)C)CC3)C1)cn2-c1ccc(F)cc1C(=O)N1CCC[C@H]1CO [Compound 328] |  | 50 | ~154 |  |  | 
28 | Cc1cncc2c1c(C[C@@H]1CCN([C@H](CO)C3CCCOC3)C1)cn2-c1ccc(F)cc1C(=O)N(C)C(C)C (single isomer, unassigned) [Compound 198b] | > 15000 |  | 107 |  |  | 
29 | CC(=O)NC1CCC(N2CC[C@@H](Cc3cn(-c4ccc(F)cc4C(=O)N(C)C(C)C)c4cncc(C)c34)C2)CC1 (some centres unmarked) [Compound 201] |  |  |  | 47 | 31 | 
